Assay results as given in paper PMC5720837, “Identification of a 4-fluorobenzyl L-valinate amide benzoxaborole (AN11736) as a potential development candidate for the treatment of Animal African Trypanosomiasis (AAT)” (Bioorganic & Medicinal Chemistry Letters, 2018).

Experiments:
[1] = system: Trypanosoma vivax (T. vivax STIB719/ILRAD 560 strain), bloodstream form; experiment: Whole cell Alamar Blue assay, T. vivax (48 h ex vivo); format: cell-based; settings: T. vivax STIB719/ILRAD 560, 48 h ex vivo Alamar Blue assay; for IC50: Trypanosoma vivax
Protocol: (§1) Activity of compounds 1–71 against T. congolense and T. vivax was determined using the whole cell assays as described ^6 and their IC50 values are summarized in Table 1.
(§2) [6] Assay methods for determination of T. c. and T. v. […] Culture media consisted of complete HMI-9 (IMDM) with 20% bovine serum. To ensure log growth phase, trypanosomes were sub-cultured at appropriate dilutions every 2–3 days. Bloodstream form Trypanosoma vivax (T. vivax) cannot be cultured axenically, therefore trypanosomes (T. vivax STIB719/ILRAD 560 strain) were harvested from a highly parasitemia mouse via cardiac puncture and used directly in the ex vivo drug sensitivity assay on the same day. […] Parasite starting concentrations of 2 × 10^5 (T. c.) and 4 × 10^5 (T. v.) were calculated respectively, using a cell analyzer system or haemo-cytometer, followed by quantification at 536 nm excitation and 588 nm emission wavelengths using a […] reader. Test compounds were prepared as 10 mg/mL DMSO stocks for each assay run. Compounds were assayed in at least three separate, independent test runs and an 11-point dilution curve was used to determine the IC50 values. Data points were averaged to generate sigmoidal dose-response curves and IC50 values were determined using Softmax Pro 5.2 software.

[2] = system: Trypanosoma congolense (T. congolense IL-3000 strain), bloodstream form; experiment: Whole cell Alamar Blue assay, T. congolense (72 h in vitro); format: cell-based; settings: T. congolense IL-3000, 72 h in vitro Alamar Blue assay
Protocol: as §1, §2

[3] = In vitro metabolic stability, bovine S9; format: in vitro ADME; settings: S9 fraction
Protocol: (§3) Selected compounds were screened in both mouse and bovine in vitro metabolic stability assays (mouse S9 and bovine S9), as summarized in Table 2. These two species were chosen because the primary in vivo assays were conducted in mice, and the target animal of this research program is cattle. […] We evaluated the efficacy of selected compounds in two in vivo mouse models of infection, against T. congolense and T. vivax, respectively. Mice were infected with either 1 × 10^5 T. c. parasites or 1 × 10^4 T. v. parasites, and then treated with a test compound via intraperitoneal administration for 1, 2 or 4 consecutive days. The mice were then monitored for the presence of parasitemia for up to 60 days post treatment.[7] We tested in T. c. model first, then followed up with T. v. for interesting compounds. […] We selected compound 5 (AN11736) to progress to exploratory studies to determine the efficacy and safety in a preliminary formulation against induced infections of T. vivax and T. congolense in cattle.[8]

[4] = system: T. c. parasites (STIB736/IL1180 strain); experiment: In vivo mouse model of T. congolense infection; design: species or system NMRI female mice; settings: intraperitoneal, monitored 60 days post treatment
Protocol: as §3
[7] Methods for testing compound efficacy in mouse models: In vivo mouse efficacy studies were performed at the Swiss TPH, using established mouse models of infection for T. c. and T. v. NMRI female mice were independently infected either with 1 × 10^5T. c. parasites/mouse (STIB736/IL1180 strain) or 1 × 10^4T. v. parasites/mouse (STIB719/ILRAD560 strain) using an intraperitoneal route. Parasitemia was allowed to develop over 7 days (T. c.) or 3 days (T. v.), respectively, before treatment was administered. Compounds were administered via intraperitoneal injection in 10% DMSO/water. Four mice were used per treatment group. Mice were monitored for the presence of trypanosomes, via tail blood examination microscopically with twice-per-week parasitemia checks for 60 days post treatment. Parasitemia was graded on a scale of 0–3, with 0 indicating no trypanosomes seen in 20 fields of view, 1 indicating the presence of 1–5 trypanosomes per field, 2 indicating the presence of 6–20 trypanosomes per field and 3 indicating greater than 20 trypanosomes per field. Mice scoring 2 or 3 were immediately euthanized. After 60 days, aparasitemic mice were considered cured. Untreated control mice survive on average for 10 and 6 days post infection for T. c. and T. v., respectively. All in vivo mouse experiments were conducted in accordance with the strict guidelines set out by the Swiss Federal Veterinary Office, under the ethical approval of license number #2813.

[5] = In vitro metabolic stability, mouse S9; format: in vitro ADME; settings: S9 fraction
Protocol: as §3

Structure (SMILES)	IC50 [1]	IC50 ([2]; Trypanosoma congolense, 72 h)	other results
Cc1c(C(=O)N[C@H](C(=O)OCc2nccs2)C(C)C)ccc2c1B(O)OC2 [Compound 42]	0.19 nM	0.2 nM	–
Cc1c(C(=O)N[C@H](C(=O)OC(C)C)C(C)C)ccc2c1B(O)OC2 [Compound 56]	14 nM	5.2 nM	–
Cc1c(C(=O)N[C@H](C(=O)OCc2ccc(Cl)cc2)C(C)C)ccc2c1B(O)OC2 [Compound 6]	2.9 nM	0.47 nM	microsomal CLint [3]: 9.1 µL/min/mg; Efficacy in mouse model T. c., n/m (mice survived / total mice in group) ([4]; 1 × 10 mg/kg): 0/4 (1 × 10); microsomal CLint [5]: 17 µL/min/mg
Cc1c(C(=O)N[C@H](C(=O)OCc2ccc3ncccc3c2)C(C)C)ccc2c1B(O)OC2 [Compound 46]	0.24 nM	0.42 nM	microsomal CLint [3]: 7 µL/min/mg; Efficacy in mouse model T. c., n/m (mice survived / total mice in group) ([4]; 1 × 10 mg/kg): 1/4 (1 × 10); microsomal CLint [5]: 7.4 µL/min/mg
Cc1c(C(=O)N[C@H](C(=O)OCc2ccc(F)c(Cl)c2)C(C)C)ccc2c1B(O)OC2 [Compound 16]	0.07 nM	0.08 nM	microsomal CLint [3]: 8.9 µL/min/mg; Efficacy in mouse model T. c., n/m (mice survived / total mice in group) ([4]; 1 × 10 mg/kg): 1/4; Efficacy in mouse model T. c., n/m (mice survived / total mice in group) ([4]; 2 × 10 mg/kg): 4/4; microsomal CLint [5]: 15 µL/min/mg
Cc1c(C(=O)N[C@H](C(=O)OC2CCCC2)C(C)C)ccc2c1B(O)OC2 [Compound 59]	0.52 nM	0.7 nM	–
Cc1c(C(=O)N[C@H](C(=O)OCc2ccc(S(=O)(=O)N3CCN(C)CC3)cc2)C(C)C)ccc2c1B(O)OC2 [Compound 54]	0.37 nM	1 nM	microsomal CLint [3]: 3.8 µL/min/mg; Efficacy in mouse model T. c., n/m (mice survived / total mice in group) ([4]; 1 × 10 mg/kg): 0/4 (1 × 10); microsomal CLint [5]: 5.5 µL/min/mg
Cc1c(C(=O)N[C@H](C(=O)OCc2ncc(F)cn2)C(C)C)ccc2c1B(O)OC2 [Compound 40]	0.5 nM	0.27 nM	–
Cc1c(C(=O)N[C@H](C(=O)OCCN2CCCC2)C(C)C)ccc2c1B(O)OC2 [Compound 65]	1.2 nM	9.4 nM	–
Cc1c(C(=O)N[C@H](C(=O)OCc2ccc3ccccc3n2)C(C)C)ccc2c1B(O)OC2 [Compound 45]	0.33 nM	0.37 nM	–
Cc1c(C(=O)N[C@H](C(=O)OC2CCC2)C(C)C)ccc2c1B(O)OC2 [Compound 58]	0.69 nM	0.66 nM	–
C[C@H](NC(=O)c1ccc2c(c1)B(O)OC2)C(=O)OCc1ccccc1 [Compound 1]	69 nM	5 nM	IC50 [2]: 4.9 nM
CC(C)[C@H](NC(=O)c1ccc2c(c1)B(O)OC2(C)C)C(=O)OCc1ccccc1 [Compound 3]	9190 nM	2580 nM	–
Cc1c(C(=O)NC2(C(=O)OCc3ccc(F)cc3)CC2)ccc2c1B(O)OC2 [Compound 31]	18 nM	0.13 nM	microsomal CLint [3]: < 1 µL/min/mg; IC50 (nM) T. v. [1]: decreased activity; Efficacy in mouse model T. c., n/m (mice survived / total mice in group) ([4]; 1 × 10 mg/kg): 0/4 (1 × 10); microsomal CLint [5]: < 1 µL/min/mg
Cc1c(C(=O)N[C@H](C(=O)OCc2cnccn2)C(C)C)ccc2c1B(O)OC2 [Compound 39]	0.24 nM	0.57 nM	microsomal CLint [3]: 3.9 µL/min/mg; Efficacy in mouse model T. c., n/m (mice survived / total mice in group) ([4]; 1 × 10 mg/kg): 0/4 (1 × 10); microsomal CLint [5]: 1.6 µL/min/mg
Cc1c(C(=O)N[C@H](C(=O)OCc2c[nH]cn2)C(C)C)ccc2c1B(O)OC2 [Compound 44]	980 nM	5000 nM	–
Cc1c(C(=O)N[C@H](C(=O)OCc2cc(F)c(F)c(F)c2)C(C)C)ccc2c1B(O)OC2 [Compound 18]	0.06 nM	0.2 nM	microsomal CLint [3]: 3.1 µL/min/mg; Efficacy in mouse model T. c., n/m (mice survived / total mice in group) ([4]; 1 × 10 mg/kg): 1/4 (1 × 10); microsomal CLint [5]: 9.7 µL/min/mg
CC(C)[C@H](NC(=O)c1ccc2c(c1C(F)F)B(O)OC2)C(=O)OCc1ccc(F)cc1 [Compound 22]	0.92 nM	0.67 nM	microsomal CLint [3]: 0.9 µL/min/mg; Efficacy in mouse model T. c., n/m (mice survived / total mice in group) ([4]; 1 × 10 mg/kg): 0/4 (1 × 10); microsomal CLint [5]: 1.4 µL/min/mg
Cc1c(C(=O)N[C@H](C(=O)OCc2cscn2)C(C)C)ccc2c1B(O)OC2 [Compound 43]	–	0.062 nM	–
Cc1c(C(=O)N[C@H](C(=O)OCC2CCN(C)CC2)C(C)C)ccc2c1B(O)OC2 [Compound 66]	4.1 nM	5.9 nM	–
Cc1c(C(=O)N[C@H](C(=O)OC2COC2)C(C)C)ccc2c1B(O)OC2 [Compound 68]	37 nM	1.8 nM	–
Cc1c(C(=O)N[C@H](C(=O)OCC2CCCC2)C(C)C)ccc2c1B(O)OC2 [Compound 61]	0.21 nM	0.36 nM	–
Cc1c(C(=O)N[C@H](C(=O)OCCN2CCOCC2)C(C)C)ccc2c1B(O)OC2 [Compound 64]	0.78 nM	2.3 nM	–
Cc1c(C(=O)N[C@H](C(=O)OCc2ccccn2)C(C)C)ccc2c1B(O)OC2 [Compound 36]	0.14 nM	0.26 nM	–
Cc1c(C(=O)N[C@H](C(=O)OCC(C)C)C(C)C)ccc2c1B(O)OC2 [Compound 57]	0.26 nM	0.46 nM	–
Cc1c(C(=O)N[C@H](C(=O)OC2CCCCC2)C(C)C)ccc2c1B(O)OC2 [Compound 60]	0.78 nM	< 0.005 nM	–

Further lines, with some results ahead:

IC50 [1]	IC50 ([2]; Trypanosoma congolense, 72 h)	Structure (SMILES)	other results
19 nM	0.31 nM	Cc1c(C(=O)N[C@H](C(=O)OCc2cccc(OC(F)(F)F)c2)C(C)C)ccc2c1B(O)OC2 [Compound 12]	–
0.5 nM	0.78 nM	Cc1c(C(=O)N[C@H](C(=O)OCc2cccnc2)C(C)C)ccc2c1B(O)OC2 [Compound 37]	–
2.5 nM	0.45 nM	Cc1c(C(=O)NC2(C(=O)OCc3ccc(F)cc3)CCC2)ccc2c1B(O)OC2 [Compound 32]	–
0.71 nM	3.9 nM	CC(C)[C@H](NC(=O)c1ccc2c(c1C1CC1)B(O)OC2)C(=O)OCc1ccc(F)cc1 [Compound 27]	–
0.1 nM	0.59 nM	Cc1c(C(=O)N[C@H](C(=O)OCc2cccc(F)c2)C(C)C)ccc2c1B(O)OC2 [Compound 7]	–
0.79 nM	0.43 nM	Cc1c(C(=O)N[C@H](C(=O)OCCc2ccc(F)cc2)C(C)C)ccc2c1B(O)OC2 [Compound 67]	–
0.31 nM	0.68 nM	Cc1c(C(=O)N[C@H](C(=O)OCc2ccncc2)C(C)C)ccc2c1B(O)OC2 [Compound 38]	–
4.7 nM	3 nM	CCCc1c(C(=O)N[C@H](C(=O)OCc2ccc(F)cc2)C(C)C)ccc2c1B(O)OC2 [Compound 25]	–
0.38 nM	0.12 nM	Cc1c(C(=O)N[C@H](C(=O)OCc2ccc(F)cc2)C2CC2)ccc2c1B(O)OC2 [Compound 28]	–
0.04 nM	0.23 nM	Cc1c(C(=O)N[C@H](C(=O)OCc2ccc(OC(F)(F)F)cc2)C(C)C)ccc2c1B(O)OC2 [Compound 13]	–
0.1 nM	0.18 nM	Cc1c(C(=O)N[C@H](C(=O)OCc2cc(F)cc(F)c2)C(C)C)ccc2c1B(O)OC2 [Compound 9]	–
2.7 nM	0.22 nM	Cc1c(C(=O)N[C@H](C(=O)OCc2cccc(C(F)(F)F)c2)C(C)C)ccc2c1B(O)OC2 [Compound 10]	–
24 nM	0.16 nM	Cc1c(C(=O)N[C@H](C(=O)OCc2ccc(C(F)(F)F)cc2)C(C)C)ccc2c1B(O)OC2 [Compound 11]	–
51 nM	37 nM	CC(C)[C@H](NC(=O)c1ccc2c(c1C(F)(F)F)B(O)OC2)C(=O)OCc1ccc(F)cc1 [Compound 23]	–
0.05 nM	0.15 nM	Cc1c(C(=O)N[C@H](C(=O)OCc2ccc(C#N)cc2)C(C)C)ccc2c1B(O)OC2 [Compound 15]	–
